Test results as given in patent publication US9896423B2, “Deuterium substituted 1-[2-(2,4-dimethyl-phenylsulfanyl)-phenyl]piperazine compound or derivatives thereof, and pharmaceutical composition and use thereof” (Jiangsu Jibeier Pharmaceutical Co. Ltd., priority 2014, dated 2018).
Where “and” joins values, the source holds several entries; their conditions need not be identical. Equal entries are not always repeated. Structures can show the parent of a compound that is named as a salt. Where two headings read alike, the source gives them in different places.

Assay: Pharmacokinetic test in rats, gavage administration
Type: in vivo, SD rats
Experimental: The preferred compound of the present disclosure was assessed in rats for its pharmacokinetic profile.
SD rats, male and female, weighing 150 to 250 g
Mobile phase: 10 mM ammonium formate aqueous solution:methanol=15:85
The ionization source was electrospray ionization source. The detection mode was positive mode. Multiple reaction monitoring (MRM) was used as the scanning mode. The ion reaction for the quantitative analysis was the following: m/z was 305.2\150.0 for XX, and 256.1\167.1 for diphenhydramine (the internal standard).
XX or YY was orally administered with single dose of 20 mg/kg to six SD rats, one half of which were male and the other half was female. XX or YY was dissolved in 10% hydroxypropyl-β-cyclodextrin. […]
After the blood collection, the tubes were immediately gently turned upside down at least five times to ensure sufficient mixing, and placed on ice. Heparin was added for anticoagulation. The samples were centrifuged at 8000 rpm for 5 min to separate serum from erythrocyte. The serum was transferred with a pipettor to 2 mL polypropylene (PP) tubes, which were marked with the name of the compound and the time points, and stored in a refrigerator at −40° C. before LC-MS analysis. Samples with high concentrations were diluted with rat blank plasma.
2.5 μL of Meth-H2O and 5 μL of the internal standard solution (20 ng/mL, IS) were added to 50 μL of the plasma. Subsequently, 150 μL of methanol was added to the mixture to precipitate protein and the samples were then centrifuged at 13000 rpm for 5 min. The upper organic phase was taken out, filtrated with a 0.22 μM microporous membrane, and 2 μL of the sample was injected for the LC-MS analysis.

For `[2H]C([2H])([2H])c1ccc(Sc2ccccc2N2CCNCC2)c(C([2H])([2H])[2H])c1` [XX, 1-{2-[2,4-bis(trideuteriomethyl)phenylsulfanyl]phenyl}piperazine hydrobromic acid salt], which “Concentrations in Plasma of Rats after Oral Administration” value (“Concentrations in Plasma of Rats” below) (20 mg/kg oral, 10 min (Table 5: 0.167 h) after administration, individual rats 1-6) is on record?
Its value is 10.6 ng/mL and 7 ng/mL and 7.88 ng/mL and 24.8 ng/mL and 15.6 ng/mL and 16.2 ng/mL.

What about the “Concentrations in Plasma of Rats” value (20 mg/kg oral, 1 h, individual rats 1-6) of the same molecule?
The value was 68.4 ng/mL and 83.6 ng/mL and 55.2 ng/mL and 107.6 ng/mL and 144 ng/mL and 115.8 ng/mL.

And the “Concentrations in Plasma of Rats” value (20 mg/kg oral, 1.5 h, individual rats 1-6)?
The value was 91.6 ng/mL and 77.4 ng/mL and 120.8 ng/mL and 142.8 ng/mL and 109.6 ng/mL.

And the “Concentrations in Plasma of Rats” value (20 mg/kg oral, 2 h, individual rats 1-6)?
The value was 86.6 ng/mL and 77.8 ng/mL and 118.4 ng/mL and 119.6 ng/mL and 108 ng/mL.

And the “Concentrations in Plasma of Rats” value (20 mg/kg oral, 3 h, individual rats 1-6)?
Its value is 65.8 ng/mL and 53.8 ng/mL and 85.8 ng/mL and 77.6 ng/mL and 71.2 ng/mL.

What about the “Concentrations in Plasma of Rats” value (20 mg/kg oral, 4 h, individual rats 1-6) of the same molecule?
Its value is 60.8 ng/mL and 56 ng/mL and 61.2 ng/mL and 85.6 ng/mL and 63.4 ng/mL.

And the “Concentrations in Plasma of Rats” value (20 mg/kg oral, 6 h, individual rats 1-6)?
Its value is 48.7 ng/mL and 36.8 ng/mL and 42.8 ng/mL and 54.6 ng/mL and 35.5 ng/mL.

What about the “Concentrations in Plasma of Rats” value (20 mg/kg oral, 8 h, individual rats 1-6) of the same molecule?
Its value is 22.5 ng/mL and 20.9 ng/mL and 31.7 ng/mL and 25.1 ng/mL and 18.9 ng/mL.

What about the “Concentrations in Plasma of Rats” value (20 mg/kg oral, 10 h, individual rats 1-6) of the same molecule?
The value was 17.9 ng/mL and 15.5 ng/mL and 20.3 ng/mL and 14.9 ng/mL and 13.5 ng/mL.

What about the “Concentrations in Plasma of Rats” value (20 mg/kg oral, 12 h, individual rats 1-6) of the same molecule?
The value was 8.22 ng/mL and 6.78 ng/mL and 11.3 ng/mL and 7.08 ng/mL and 7.2 ng/mL.

What about the “Concentrations in Plasma of Rats” value (20 mg/kg oral, 14 h, individual rats 1-6) of the same molecule?
Its value is 4.01 ng/mL and 3.56 ng/mL and 7.32 ng/mL and 4.43 ng/mL and 3.11 ng/mL and 3.19 ng/mL.

And the “Concentrations in Plasma of Rats” value (20 mg/kg oral, 24 h, individual rats 1-6)?
Its value is 1.46 ng/mL and 0.571 ng/mL and 0.368 ng/mL and 1.32 ng/mL and 0.365 ng/mL and 0.389 ng/mL.

And the bioavailability (both sexes, SD, rat, plasma, po, 20 mg/kg, rats, oral 20 mg/kg vs iv 2 mg/kg, individual rats 1-6, read-out: F %)?
Its bioavailability is 11%.

What about the AUC(0-t) (both sexes, SD, rat, plasma, po, 20 mg/kg, rats, oral 20 mg/kg, individual rats 1-6, read-out: AUC0-1) of the same molecule?
Its AUC(0-t) is 524 ng·h/mL.

And the AUC(0-inf) (both sexes, SD, rat, plasma, po, 20 mg/kg, rats, oral 20 mg/kg, individual rats 1-6, read-out: AUC0-∞)?
The AUC(0-inf) was 532 ng·h/mL.

What about the Cmax (both sexes, SD, rat, plasma, po, 20 mg/kg, rats, oral 20 mg/kg, individual rats 1-6, read-out: Cmax) of the same molecule?
The Cmax was 78.6 ng/mL.

And the MRT inf (both sexes, SD, rat, plasma, po, 20 mg/kg, rats, oral 20 mg/kg, individual rats 1-6, read-out: MRT0-∞)?
Its MRT inf is 5.62 h.

And the AUC(0-t) (both sexes, SD, rat, plasma, po, 20 mg/kg, rats, oral 20 mg/kg, n = 6, read-out: AUC0-1, Mean ± SD)?
Its AUC(0-t) is 583 ± 82.7 ng·h/mL.

And the AUC(0-inf) (both sexes, SD, rat, plasma, po, 20 mg/kg, rats, oral 20 mg/kg, n = 6, read-out: AUC0-∞, Mean ± SD)?
Its AUC(0-inf) is 586 ± 82.8 ng·h/mL.

And the Cmax (both sexes, SD, rat, plasma, po, 20 mg/kg, rats, oral 20 mg/kg, n = 6, read-out: Cmax, Mean ± SD)?
Its Cmax is 105 ± 26.5 ng/mL.

What about the MRT inf (both sexes, SD, rat, plasma, po, 20 mg/kg, rats, oral 20 mg/kg, n = 6, read-out: MRT0-∞, Mean ± SD) of the same molecule?
Its MRT inf is 4.93 ± 0.58 h.

And the half-life (both sexes, SD, rat, plasma, po, 20 mg/kg, rats, oral 20 mg/kg, n = 6, read-out: t1/2, Mean ± SD (converted))?
Its half-life is 175 ± 48 min.

And the concentration at 10 min (both sexes, Sprague-Dawley, rat, plasma, oral, 20 mg/kg, 20 mg/kg oral, 10 min (Table 5: 0.167 h), mean of 6 rats, read-out: Concentrations in Plasma of Rats after Oral Administration, Mean ± SD)?
Its concentration at 10 min is 13.7 ± 6.65 ng/mL.

What about the concentration at 0.5 h (both sexes, Sprague-Dawley, rat, plasma, oral, 20 mg/kg, 20 mg/kg oral, 0.5 h, mean of 6 rats, read-out: Concentrations in Plasma of Rats after Oral Administration, Mean ± SD) of the same molecule?
The concentration at 0.5 h was 62.9 ± 19.6 ng/mL.

And the concentration at 1 h (both sexes, Sprague-Dawley, rat, plasma, oral, 20 mg/kg, 20 mg/kg oral, 1 h, mean of 6 rats, read-out: Concentrations in Plasma of Rats after Oral Administration, Mean ± SD)?
The concentration at 1 h was 95.8 ± 32.9 ng/mL.

And the concentration at 1.5 h (both sexes, Sprague-Dawley, rat, plasma, oral, 20 mg/kg, 20 mg/kg oral, 1.5 h, individual rats 1-6, read-out: Concentrations in Plasma of Rats after Oral Administration)?
The concentration at 1.5 h was 73.4 ng/mL.

And the concentration at 1.5 h (both sexes, Sprague-Dawley, rat, plasma, oral, 20 mg/kg, 20 mg/kg oral, 1.5 h, mean of 6 rats, read-out: Concentrations in Plasma of Rats after Oral Administration, Mean ± SD)?
The concentration at 1.5 h was 103 ± 26.9 ng/mL.

And the concentration at 2 h (both sexes, Sprague-Dawley, rat, plasma, oral, 20 mg/kg, 20 mg/kg oral, 2 h, individual rats 1-6, read-out: Concentrations in Plasma of Rats after Oral Administration)?
The concentration at 2 h was 78.6 ng/mL.

And the concentration at 2 h (both sexes, Sprague-Dawley, rat, plasma, oral, 20 mg/kg, 20 mg/kg oral, 2 h, mean of 6 rats, read-out: Concentrations in Plasma of Rats after Oral Administration, Mean ± SD)?
Its concentration at 2 h is 98.2 ± 19.5 ng/mL.

And the concentration at 3 h (both sexes, Sprague-Dawley, rat, plasma, oral, 20 mg/kg, 20 mg/kg oral, 3 h, individual rats 1-6, read-out: Concentrations in Plasma of Rats after Oral Administration)?
The concentration at 3 h was 58 ng/mL.
